Measurements reported in article PMC8226722, “Comparison of Solution Chemical Properties and Biological Activity of Ruthenium Complexes of Selected β-Diketone, 8-Hydroxyquinoline and Pyrithione Ligands” (Pharmaceuticals, 2021).

Columns and labels:
[1] = tested on: hormone dependent MCF-7 breast cancer cell line; set-up: method as in PMID 27357845, PMID 31461189, PMID 24189185; details: read-out: half maximal effective concentration, MCF-7; cited from earlier work
[2] = tested on: array of cancer cell lines including cisplatin- and adriamycin-resistant strains; set-up: method as in PMID 34065335; details: cited from earlier work
Chlamydia trachomatis = experiment: Antichlamydia activity in HeLa cells, direct qPCR; assay type: cell-based; details: MOI 0.2, 48 h post infection
Experimental: Then the Hela cells were infected with C. trachomatis at multiplicity of infection (MOI) 0.2, and were treated with different concentrations of the complexes for 24 h. After 48 h post infection, the cells were lysed and the chlamydial growth reducing effect of the complexes was evaluated by comparing the chlamydial genom concentration to that seen on untreated/infected HeLa cells. The C. trachomatis DNA concentration was measured by direct quantitative PCR (qPCR). The average cycle threshold (Ct) numbers were calculated and –Ct values are shown at the various complex concentrations in Figure 2 for 7 and 8 (and Figure S2 for the rest of the complexes). The maximum C. trachomatis growth corresponded to a DNA concentration of Ct ~19 value as detected by direct qPCR, as well.
The Chlamydia trachomatis strain was propagated and partially purified as described previously with some modifications. The infected cells were stained with monoclonal antichlamydia lipopolysaccharide (LPS) antibody (AbD Serotec, Oxford, UK) and fluorescein isothiocyanate-labeled anti-mouse IgG (Sigma-Aldrich) and the number of cells containing chlamydial inclusions was counted under a UV microscope, and the titer was expressed as the number of inclusion forming units (IFU)/mL. […]

[3] = tested on: Human herpes simplex virus-2 (HSV-2); experiment: Antiviral activity in Vero cells, direct qPCR; assay type: cell-based
Experimental: Then Vero cells were infected with HSV-2 (at MOI 0.2) and were treated with the complexes for 24 h. After 24 h post infection, the cells were lysed and the virus yield reducing effect of the compounds was evaluated by comparing the yield to that seen on untreated Vero cells. The HSV-2 DNA concentration was measured by direct qPCR.
Human herpes simplex virus-2 (HSV-2) strain was (gift from Dr. Ilona Mucsi, University of Szeged, Szeged, Hungary) grown in Vero (ATCC) cells and the infectivity was measured by using the plaque titration method. The virus titer was expressed in plaque forming units (PFU).
The plates were incubated for at 37 °C, 5% CO2 for 24 h. The plates were evaluated with quantitative PCR.
At the end of the infection (24 h for HSV-2, 48 h for C. trachomatis) the supernatants of the cells were removed and the cells were washed with PBS twice, and finally 100 μL in sucrose-phosphate-glutamic acid buffer (SPG) was measured into the wells, and the cells were subjected to two freeze-thaw cycles. The mixed cell lysates were used as a template in the qPCR as described previously. Briefly, qPCR was performed with the 5× HOT FIREPol®EvaGreen®qPCR Supermix (Solis Solis BioDyne, Tartu, Estonia) and C. trachomatis pykF gene specific primer pair in a Bio-Rad CFX96 real time PCR system. The pykF primer sequences were the following: 5′-[…]-3′, 5′-[…]-3′. For each sample the cycle threshold (Ct) number corresponding to the cycle where the amplification curve crossed the base line was determined. For the quantitative measurement of HSV-2 growth a similar qPCR method was used as was applied for C. trachomatis. The HSV-2 gD2 gene specific primer pair (gD2-F: 5′-[…]-3′, gD2-R 5′-[…]-3′ was used with a 69 °C annealing-extension temperature.

## Cc1ccc(C(C)C)cc1.[Cl-].[O-]n1ccccc1=S.[Ru+2] [complex 1]
[1]
  EC50: 3.8 µM

## C1N2CN3CN1CP(C2)C3.Cc1ccc(C(C)C)cc1.F[P-](F)(F)(F)(F)F.[O-]n1ccc2ccccc2c1=S.[Ru+2] [complex 4]
[2]
  concentration up to which inactive, cancer cell line panel: > 50 µM

## Cc1ccc(C(C)C)cc1.O=C(C=C([O-])C(F)(F)F)c1ccc(Cl)cc1.[Cl-].[Ru+2] [complex 7]
Chlamydia trachomatis
  chlamydial growth difference between treated and untreated cells: ca. 101 fold
[3]; HSV-2 MOI 0.2, 24 h
  HSV-2 growth difference: ca. 237 fold
  qPCR cycles difference (dCT): ~ 7.89 qPCR cycles
[3]; MOI 0.2, 24 h, qPCR, read-out: IC50 HSV-2 growth
  IC50: ~25 µM
[3]; MOI 0.2, 24 h, qPCR, read-out: IC90 HSV-2 growth
  IC90: 50 to 100 µM

## C1N2CN3CN1CP(C2)C3.Cc1ccc(C(C)C)cc1.F[P-](F)(F)(F)(F)F.O=C(C=C([O-])C(F)(F)F)c1ccc(Cl)cc1.[Ru+2] [complex 8]
Chlamydia trachomatis
  chlamydial growth difference between treated and untreated cells: ca. 155 fold
